“And” between values parts separate entries of the source, which are not always exact repeats. Equal values may be shown once. Read-outs that look alike come from different tables or passages of the source.
Key:
[1] = biological target: human recombinant GCL (Homo sapiens (Human), UniProt P48506); assay: GCL enzyme profiling assay (ADP-Glo luminescence); format: biochemical
Summary of the method: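 IC50 fitted by four-parameter logistic to luminescent ADP formation (ADP-Glo). Reaction at room temperature in HEPES pH 7.5 with 30 mM MgCl2, 0.2% F-127, 1% DMSO; 5 nM GCL and 0.6 mM ATP preincubated 1 h before adding 1 mM glutamate plus 1.2 mM α-aminobutyrate for 2 h.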

[2] = tested on: RKN cells; assay: RKN cell profiling assay (cell viability, CellTiter-Glo); format: cell-based
Summary of the method: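 Viability read by CellTiter-Glo luminescence after 96 h compound exposure (0.5% DMSO final) of cells plated at 1,000/well in 10% FBS F-12 and allowed 24 h attachment. Four-parameter fits gave EC50; rescue arms used ferrostatin-1, 1.5 μM, present from seeding.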

[3] = human recombinant GCL, ADP-Glo, read-out: GCL IC50
[4] = cell viability, read-out: Cell Killing EC50
[5] = human recombinant GCL 5 nM, 1 h preincubation with ATP, read-out: GCL IC50
[6] = 96 h, 96 h exposure, read-out: Cell Killing EC50

human recombinant GCL, sequence (P48506 whole entry): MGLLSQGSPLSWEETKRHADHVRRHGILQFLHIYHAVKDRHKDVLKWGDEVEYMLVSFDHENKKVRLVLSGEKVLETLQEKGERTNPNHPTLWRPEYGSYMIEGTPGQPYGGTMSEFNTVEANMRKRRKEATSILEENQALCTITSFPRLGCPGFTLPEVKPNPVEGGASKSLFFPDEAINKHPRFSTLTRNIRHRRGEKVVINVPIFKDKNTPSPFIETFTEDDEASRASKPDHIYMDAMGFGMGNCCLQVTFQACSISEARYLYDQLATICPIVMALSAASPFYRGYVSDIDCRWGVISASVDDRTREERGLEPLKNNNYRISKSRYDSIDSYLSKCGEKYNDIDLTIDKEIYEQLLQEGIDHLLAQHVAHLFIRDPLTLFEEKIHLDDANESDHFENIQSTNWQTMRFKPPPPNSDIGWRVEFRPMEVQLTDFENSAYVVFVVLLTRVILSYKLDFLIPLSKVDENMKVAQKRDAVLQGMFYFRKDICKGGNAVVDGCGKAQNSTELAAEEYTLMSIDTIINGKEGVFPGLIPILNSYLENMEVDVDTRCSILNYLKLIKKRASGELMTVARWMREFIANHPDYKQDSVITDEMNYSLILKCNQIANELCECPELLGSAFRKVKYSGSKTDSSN

Row | SMILES | IC50 [1, 3] [mM] | EC50 [2, 4] [mM] | IC50 [1, 5] | EC50 [2, 6] [mM] | further results
1 | N=S(=O)(CC[C@H](N)C(=O)O)CCC(O)(c1ccc(Oc2ccc3ccc(=O)oc3c2)cc1)C(F)(F)F (stereo partly drawn) [compound 501] | ≤ 0.02 | ≥ 1 | – | – | –
2 | N=S(=O)(CCc1cccc2c1OC(F)(F)O2)CC[C@H](N)C(=O)O (stereo partly drawn) [Compound 18] | – | – | 0.02 to 2 mM | ≥ 1 | –
3 | N=S(=O)(CCc1cccc(C(F)(F)F)c1)CC[C@H](N)C(=O)O (stereo partly drawn) [Compound 3] | – | – | 0.02 to 2 mM | ≥ 1 | –
4 | N=S(=O)(CCC1CCOCC1)CC[C@H](N)C(=O)O (stereo partly drawn) [Compound 157] | – | – | 0.02 to 2 mM | ≥ 1 | –
5 | CC(C)(C)CCS(=N)(=O)CC[C@H](N)C(=O)Nc1cc[nH]n1 (stereo partly drawn) [Compound 123] | – | – | > 2 mM and 0.02 to 2 mM | ≥ 1 | IC50 ([1]; human recombinant GCL 5 nM, 1 h preincubation with ATP, read-out: GCL IC50 (mM), individual values in parentheses): > 10 mM and 1.16 mM
6 | CCCCOC(=O)[C@@H](N)CCS(=N)(=O)CCC1CCCCC1 (stereo partly drawn) [Compound 78] | – | – | 0.02 to 2 mM | < 1 | –
7 | N=S(=O)(CC[C@H](N)C(=O)O)CCC(O)(C1CCCCC1)C(F)(F)F (stereo partly drawn) [Compound 355] | 0.02 to 2 | ≥ 1 | – | – | –
8 | N#Cc1cccc(-c2ccc(C(CCS(=N)(=O)CC[C@H](N)C(=O)O)C(F)(F)F)cc2)c1F (stereo partly drawn) [Compound 240] | ≤ 0.02 | ≥ 1 | – | – | –
9 | CC(C)(C)CCS(=N)(=O)CC[C@H](N)C(=O)NCc1cncs1 (stereo partly drawn) [Compound 124] | – | – | > 2 mM | < 1 | –
10 | COc1ccc(Cl)cc1-c1ccc(C(CCS(=N)(=O)CC[C@H](N)C(=O)O)C(F)(F)F)cc1 (stereo partly drawn) [Compound 236] | ≤ 0.02 | < 1 | – | – | –
11 | N=S(=O)(CCc1ccc(C(F)(F)F)cc1C(F)(F)F)CC[C@H](N)C(=O)O (stereo partly drawn) [Compound 36] | – | – | ≤ 0.02 mM | < 1 | –
12 | N=S(=O)(CCC(C(F)(F)F)C12CC(C1)C2)CC[C@H](N)C(=O)O (stereo partly drawn) [Compound 384] | ≤ 0.02 | ≥ 1 | – | – | –
13 | N=S(=O)(CCC(c1ccc(S(=O)(=O)c2ccccc2)cc1)C(F)(F)F)CC[C@H](N)C(=O)O (stereo partly drawn) [Compound 216, (2S)-2-amino-4-(4,4,4-trifluoro-3-(4-(phenylsulfonyl)phenyl)butylsulfonimidoyl) butanoic acid] | 0.02 to 2 | ≥ 1 | – | – | –
14 | CCCCOC(=O)[C@@H](N)CCS(=N)(=O)CCC1CCCC1 (stereo partly drawn) [Compound 77] | – | – | > 2 mM | < 1 | –
15 | N=S(=O)(CCc1cccc(F)c1F)CC[C@H](N)C(=O)O (stereo partly drawn) [Compound 16] | – | – | ≤ 0.02 mM | < 1 | –
16 | CC(C)(C)CCS(=N)(=O)CC[C@H](N)C(=O)NC(C)(C)C (stereo partly drawn) [Compound 117] | – | – | > 2 mM | ≥ 1 | –
17 | N=S(=O)(CC[C@H](N)C(=O)O)CCC(O)(c1ccc(-c2ccc(Cl)cc2Cl)cc1OC(F)(F)F)C(F)(F)F (stereo partly drawn) [Compound 449] | ≤ 0.02 | ≥ 1 | – | – | –
18 | N=S(=O)(CCCc1ccccc1)CC[C@H](N)C(=O)O (stereo partly drawn) [Compound 51] | – | – | 0.02 to 2 mM | ≥ 1 | –
19 | CC(C)(C)[C@H](N)CS(=N)(=O)CC[C@H](N)C(=O)O (stereo partly drawn) [Compound 148] | – | – | 0.02 to 2 mM | ≥ 1 | –
20 | CC(C)(CO)CCS(=N)(=O)CC[C@H](N)C(=O)O (stereo partly drawn) [Compound 184] | – | – | 0.02 to 2 mM | < 1 | –
21 | CC(C)(C)c1cc(-c2ccc(C(O)(CCS(=N)(=O)CC[C@H](N)C(=O)O)C(F)(F)F)cc2)ccc1O (stereo partly drawn) [Compound 456] | ≤ 0.02 | ≥ 1 | – | – | –
22 | N=S(=O)(CC[C@H](N)C(=O)O)CCC(O)(c1cc2ccccc2cn1)C(F)(F)F (stereo partly drawn) [Compound 331, (2S)-2-amino-4-(4,4,4-trifluoro-3-hydroxy-3-(isoquinolin-3-yl)butylsulfonimidoyl)butanoic acid] | ≤ 0.02 | < 1 | – | – | –
23 | COC(C)(C)CCCS(=N)(=O)CC[C@H](N)C(=O)O (stereo partly drawn) [Compound 295] | 0.02 to 2 | ≥ 1 | – | – | –
24 | N=S(=O)(CCC(n1ccc(-c2ccccn2)n1)C(F)(F)F)CC[C@H](N)C(=O)O (stereo partly drawn) [Compound 415] | 0.02 to 2 | ≥ 1 | – | – | –
25 | CCCC(C)OC(=O)[C@@H](N)CCS(=N)(=O)CCCC(F)(F)F (stereo partly drawn) [Compound 82] | – | – | 0.02 to 2 mM | < 1 | –
26 | N=S(=O)(CC[C@H](N)C(=O)O)CCC1(c2ccc3[nH]cnc3c2)CCC1 (stereo partly drawn) [Compound 396] | 0.02 to 2 | ≥ 1 | – | – | –
27 | N=[S@](=O)(CCCC(F)(F)F)CC[C@H](N)C(=O)O [Compound 139, (S)-2-amino-4-((S)-4,4,4-trifluorobutylsulfonimidoyl)butanoic acid] | – | – | ≤ 0.02 mM | < 1 | –

Row | SMILES | IC50 [1, 3] [mM] | EC50 [2, 4] [mM] | IC50 [1, 5] | EC50 [2, 6] [mM] | further results
28 | N=[S@](=O)(CC[C@H](N)C(=O)O)CCC(O)(c1ccccc1)C(F)(F)F (single isomer, unassigned) [Compound 345] | > 2 | ≥ 1 | – | – | –
29 | N=[S@SP2](=O)(CCC(N)C(=O)O)CCC(c1ccc(-c2ccccc2)cc1)(C(F)(F)F)C(F)(F)F (stereo not drawn) [compound 509] | ≤ 0.02 | ≥ 1 | – | – | –
30 | N=S(=O)(CCC(c1ccccc1)c1ccccc1)CC[C@H](N)C(=O)O (stereo partly drawn) [Compound 55] | – | – | 0.02 to 2 mM | ≥ 1 | –
31 | N=S(=O)(CCC(c1ccc(-c2cccc(N)c2)cc1)C(F)(F)F)CC[C@H](N)C(=O)O (stereo partly drawn) [Compound 239] | ≤ 0.02 | ≥ 1 | – | – | –
32 | N[C@@H](CCS(=O)(=O)CCC(O)(c1ccccn1)C(F)(F)F)C(=O)O (stereo partly drawn) [Compound 351, (2S)-2-amino-4-((4,4,4-trifluoro-3-hydroxy-3-(pyridin-2-yl)butyl)sulfonyl)butanoic acid] | ≤ 0.02 | ≥ 1 | – | – | –
33 | N=S(=O)(CC[C@H](N)C(=O)O)CCC(O)(c1ccncc1)C(F)(F)F (stereo partly drawn) [Compound 362] | 0.02 to 2 | ≥ 1 | – | – | –
34 | N=[S@SP2](=O)(CCC(N)C(=O)O)CCC12CC(c3ccc(C(F)(F)F)cc3)(C1)C2(F)F (stereo not drawn) [compound 500] | ≤ 0.02 | ≥ 1 | – | – | –
35 | CC(O)(CCS(=N)(=O)CC[C@H](N)C(=O)O)C1CCC1 (stereo partly drawn) [Compound 497, (2S)-2-amino-4-(3-cyclobutyl-3-hydroxybutylsulfonimidoyl)butanoic acid] | 0.02 to 2 | ≥ 1 | – | – | –
36 | N=S(=O)(CCC(C1CCCCC1)C(F)(F)F)CC[C@H](N)C(=O)O (stereo partly drawn) [Compound 381, (2S)-2-amino-4-(3-cyclohexyl-4,4,4-trifluorobutylsulfonimidoyl)butanoic acid] | ≤ 0.02 | ≥ 1 | – | – | –
37 | N=S(=O)(CCCC(F)(F)F)CC[C@H](N)C(=O)OC1CCOCC1 (stereo partly drawn) [Compound 84] | – | – | 0.02 to 2 mM | < 1 | –
38 | N=S(=O)(CC[C@H](N)C(=O)O)CCC(O)(c1ccc(-n2cccn2)cc1)C(F)(F)F (stereo partly drawn) [Compound 426, (2S)-4-(3-(4-(1H-pyrazol-1-yl)phenyl)-4,4,4-trifluoro-3-hydroxybutylsulfonimidoyl)-2-aminobutanoic acid] | 0.02 to 2 | ≥ 1 | – | – | –
39 | CC(C)(C)CCS(=N)(=O)CC[C@H](N)C(=O)OC1CCCCC1 (stereo partly drawn) [Compound 97] | – | – | > 2 mM | < 1 | –
40 | N=S(=O)(CCC1COC1)CC[C@H](N)C(=O)O (stereo partly drawn) [Compound 181] | – | – | 0.02 to 2 mM | ≥ 1 | –
41 | N[C@@H](CCS(=O)(=O)CCC(O)(c1ccc(-c2ccc(Cl)cc2Cl)cc1)C(F)(F)F)C(=O)O (stereo partly drawn) [Compound 427, (2S)-2-amino-4-((3-(2′, 4′-dichloro-[1, 1′-biphenyl]-4-yl)-4,4,4-trifluoro-3-hydroxybutyl)sulfonyl) butanoic acid] | 0.02 to 2 | ≥ 1 | – | – | –
42 | CC(C)(C)c1nnc(-c2ccc(C(O)(CCS(=N)(=O)CC[C@H](N)C(=O)O)C(F)(F)F)cc2)o1 (stereo partly drawn) [Compound 445] | 0.02 to 2 | ≥ 1 | – | – | –
43 | CC(C)OCCCS(=N)(=O)CC[C@H](N)C(=O)O (stereo partly drawn) [Compound 162] | – | – | 0.02 to 2 mM | ≥ 1 | –
44 | CCC(CS(=N)(=O)CC[C@H](N)C(=O)O)c1ccccc1C(F)(F)F (stereo partly drawn) [Compound 47] | – | – | > 2 mM | ≥ 1 | –
45 | N=S(=O)(CCC(n1ncc(-c2cccnc2)n1)C(F)(F)F)CC[C@H](N)C(=O)O (stereo partly drawn) [Compound 408] | ≤ 0.02 | ≥ 1 | – | – | –
46 | CC(C)(C)CCS(=N)(=O)CC[C@H](N)C(=O)Nc1cccnc1 (stereo partly drawn) [Compound 101, (2S)-2-amino-4-(3,3-dimethylbutylsulfonimidoyl)-N-(pyridin-3-yl)butanamide] | – | – | > 2 mM | < 1 | –
47 | N[C@@H](CCS(=O)(=O)CCC(O)(c1ccsn1)C(F)(F)F)C(=O)O (stereo partly drawn) [Compound 371] | ≤ 0.02 | < 1 | – | – | –
48 | CC1(CCS(=N)(=O)CC[C@H](N)C(=O)O)CCCCC1 (stereo partly drawn) [Compound 300] | 0.02 to 2 | ≥ 1 | – | – | –
49 | N=S(=O)(CCC(c1ccc(S(=O)(=O)Nc2ccccc2)cc1)C(F)(F)F)CC[C@H](N)C(=O)O (stereo partly drawn) [compound 499] | ≤ 0.02 | ≥ 1 | – | – | –
50 | CCCCS(=N)(=O)CC[C@H](N)C(=O)NS(=O)(=O)C1CC1 (stereo partly drawn) [Compound 109] | – | – | 0.02 to 2 mM | ≥ 1 | –
51 | N=S(=O)(CC[C@H](N)C(=O)O)CC(O)C1CCCC1 (stereo partly drawn) [Compound 137] | – | – | 0.02 to 2 mM | < 1 | EC50 ([2]; 96 h, 96 h exposure, read-out: Cell Killing EC50 (mM), individual values in parentheses): 1.47 mM; EC50 ([2]; 96 h exposure, read-out: Cell Killing EC50 (mM), individual values in parentheses): 0.92 mM
52 | N[C@@H](CCS(=O)(=O)CCC(O)(c1ccc(-c2ccc(Cl)cc2Cl)cn1)C(F)(F)F)C(=O)O (stereo partly drawn) [Compound 460, (2S)-2-amino-4-[3-[5-(2,4-dichlorophenyl)-2-pyridyl]-4,4,4-trifluoro-3-hydroxy-butyl]sulfonyl-butanoic acid] | ≤ 0.02 | < 1 | – | – | –
53 | N=S(=O)(CCC(C1CCCC1)C(F)(F)F)CC[C@H](N)C(=O)O (stereo partly drawn) [Compound 382] | ≤ 0.02 | ≥ 1 | – | – | –
54 | Cc1ccc(CCS(=N)(=O)CC[C@H](N)C(=O)O)cc1 (stereo partly drawn) [Compound 11] | – | – | ≤ 0.02 mM | ≥ 1 | –
